Measured values as given in patent US12012467B2, “Small molecule DCN1 inhibitors and therapeutic methods using the same” (THE REGENTS OF THE UNIVERSITY OF MICHIGAN, priority 2017, dated 2024).
Structures can show the parent of a compound that is named as a salt. Where two headings read alike, the source gives them in different places. Numbered stars: 1 amine (or outer) side, 2 acyl side, 3 side chain; on linkers, the order of the positions; unused ones are H or OH. Square brackets hold non-standard residues; d marks the D form. Peptide text beside a SMILES is read from it. * marks the point of attachment. Ala(6-iPr-benzothiazol-2-yl) = CC(C)c1ccc2nc(C[C@H](N)C(=O)O)sc2c1; Gly(piperidin-4-yl) = N[C@H](C(=O)O)C1CCNCC1; Abu(4,4,4-F3) = N[C@@H](CC(F)(F)F)C(=O)O; Gly(4-THP) = N[C@H](C(=O)O)C1CCOCC1; Cyclopropanecarbonyl = O=C(C1CC1)*; Gly(cPent) = N[C@H](C(=O)O)C1CCCC1; tBuAla = CC(C)(C)C[C@H](N)C(=O)O; Cha = N[C@@H](CC1CCCCC1)C(=O)O; Chg = N[C@H](C(=O)O)C1CCCCC1; Isovaleryl = CC(C)CC(=O)*; Isobutyryl = CC(C)C(=O)*; Abu = CC[C@H](N)C(=O)O; CO = O=C([*:1])[*:2]; Propionyl = CCC(=O)*; Butyryl = CCCC(=O)*; Moc = COC(=O)*

Legend:
NRF2 = assay: Western blotting of NRF2 and NRF2-regulated proteins in THLE2 liver cell line; assay type: cell-based; settings: THLE2 liver cell line; for accumulation of NRF2 and NQ01 protein: 10 μM, different time points; for abundance of NRF2 protein (cullin 3 substrate): dose-range, 24 h, western blotting
Description: (§1) A key function of cullin neddylation is to control E3 ubiquitin ligase activity of the cullin complex, which in turn regulates protein turnover in cells. DI-591 (Example 58) was evaluated for its effect on neddylation of 5 different cullins in the THLE2 liver cell line with the data shown in FIG. 1. Immortalized THLE2 liver cell line was treated by a dose-range of DCN1 inhibitor DI-591 or a dose-range of MLN4924 for 24 h. The protein levels of neddylated- and un-neddylated-cullin family proteins and several well-known substrates of cullins were examined by western blotting analysis. GAPDH was used as a loading control. […] Immunohistochemical data confirmed the increased NRF2 protein by Example 58 in liver cells.
NRF2 is a transcriptional factor and a master regulator of antioxidant responses, regulating numerous detoxifying and antioxidant genes, such as the phase II detoxification enzymes heme oxygenase (HO1) and NAD(P)H:quinone oxidoreductase-1 (NQ01) (36). DI-591 (Example 58) was compared to dimethyl fumarate (DMF) for their effect on NRF2 and NQ01 protein levels in the THLE2 liver cell line with DI-591DD included as a control with the data shown in FIG. 3. THLE2 liver cell line was treated by DI-591 at 10 μM, DI-591DD at 10 μM or DMF at 10 μM for different time points.
(§2) Immortalized liver THLE2 (ATCC® CRL-2706™) cell lines was purchased from the ATCC (Rockville, MD). The cell line was maintained in BEGM Bronchial Epithelial Cell Growth Medium from Lonza/Clonetics Corporation (CC3170, Walkersville, MD) supplemented with 10% FBS and pen-strep at 37° C. in a humidified incubator with 5% CO2. Esophageal cancer KYSE140 cell line (ACC 348) was purchased from DSMZ (Braunschweig, Germany). The cell line was maintained RPMI1640 supplemented with 10% FBS and pen-strep at 37° C. in a humidified incubator with 5% CO2.
(§3) Treated cells were lysed by RIPA buffer supplemented with protease inhibitor. The expression level of indicated proteins was examined by western blotting analysis. GAPDH was used as a loading control. Antibodies were purchased: Cullin 1 (sc-11384), Cullin2 (sc-10781), Cullin5 (sc-13014) and Cullin7 (sc-134565) from Santa Cruz Biotech. (Santa Cruz, CA); Cullin 4A (PA5-14542), Cullin 4B (PA5-35239), Cullin9 (PA5-20277), DCN2 (DCUN1D2, PA5-31607) and DCN3 (DCUN1D3, PA5-44000) from ThermoFisher Scientific (Wayne, MI); Cullin 3 (2759), NRF2 (12721), HO-1 (70081), NQ01 (3187), Cyclin E (4129), Bim (2819), Keap1 (8047) and UBC12 (4913) from Cell Signaling Technology (Boston, MA); DCN1 (GWB-E3D700) from GenWay Biotech (San Diego, CA). Results are representative of three independent experiments.

Cyclin E, BimEL, CDT1 = assay: Western blotting of Cul-1 and Cul-4A substrates in THLE2 liver cell line; assay type: cell-based; settings: dose-range, 24 h
Description: as §1, §2, §3

[1] = test system: mRNA of NRF2, NQ01 and HO-1; assay: qRT-PCR of NRF2 and NRF2-regulated genes in THLE2 liver cell line; assay type: cell-based; settings: 10 μM, different time points
Excerpt: FIG. 4 provides qRT-PCR analysis of mRNA levels of NRF2 and NRF2-regulated genes in the THLE2 liver cell line. […] The relative mRNA levels of NRF2, NQ01 and HO-1 were examined by quantitative real-time RT-PCR assay.

DCN1 = DCN1 (Homo sapiens (Human), UniProt Q96GG9); assay: Competitive FP binding assay
Outline: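 FP competition with DCN1 in 100 mM phosphate pH 6.5, 0.02% Tween-20, 2% DMSO, probe 5 nM final. Equilibrated 30 min at room temperature with shaking. DCN1 was His6-tagged (uncleaved), expressed in E. coli Rosetta2 and purified by Ni-NTA and gel filtration.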

neddylation of cullin 3 = assay: Western blotting of neddylated and un-neddylated cullin 3 in THLE2 liver cell line; assay type: cell-based; settings: THLE2; DI-591 at 10 μM or MLN4924 at 0.3 μM; 5 minutes to 24 hours
Description: as §1
(§4) DI-591 (Example 58) was further compared to MLN4924 for their ability to inhibit neddylation of cullin 1 and cullin 3 in the THLE2 liver cell line with the data shown in FIG. 2. THLE2 liver cell line was treated by DI-591 at 10 μM or MLN4924 at 0.3 μM for 5 minutes (5m), 30 minutes (30 m), 2 hours (2h) and 24 hours (24h). […] In comparison, MLN4924 inhibits the neddylation of both cullin 1 and 3.
as §2
(§5) Treated cells were lysed by RIPA buffer supplemented with protease inhibitor. The expression level of indicated proteins was examined by western blotting analysis. GAPDH was used as a loading control. Antibodies were purchased: Cullin 1 (sc-11384), Cullin2 (sc-10781), Cullin5 (sc-13014) and Cullin7 (sc-134565) from Santa Cruz Biotech. […]

neddylation of cullin 1 = assay: Western blotting of neddylated and un-neddylated cullin 1 in THLE2 liver cell line; assay type: cell-based; settings: DI-591 at 10 μM or MLN4924 at 0.3 μM, 5 minutes to 24 hours
Description: as §4, §2, §5

[2] = read-out: Binding affinity to DCN1 (IC50 (nM))

Chain of DCN1 (Q96GG9 58-259): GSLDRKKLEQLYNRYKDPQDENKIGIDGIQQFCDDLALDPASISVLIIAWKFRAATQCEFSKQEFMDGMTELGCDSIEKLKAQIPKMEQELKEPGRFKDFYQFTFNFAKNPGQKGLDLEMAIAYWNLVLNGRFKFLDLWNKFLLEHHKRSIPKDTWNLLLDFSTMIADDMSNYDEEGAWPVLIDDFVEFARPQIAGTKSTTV

SMILES | IC50 (DCN1; [2]) [nM] | further results
COC(=O)/C=C/C(=O)OC [Dimethyl fumarate, dimethyl fumarate, reference compound] | – | accumulation of NRF2 and NQ01 protein (NRF2): stimulates the accumulation; accumulation of NRF2 and NQ01 protein (NRF2; listed as dimethyl fumarate): stimulate the accumulation
CCC(=O)N[C@H](Cc1nc2ccc(C(C)C)cc2s1)C(=O)N[C@@H](CNC(=O)CCN1CCOCC1)C1CCCCC1 [Example 123, (R)—N—((R)-1-cyclohexyl-2-(3-morpholinopropanamido)ethyl)-3-(6-isopropylbenzo[d]thiazol-2-yl)-2-propionamidopropanamide] | – | accumulation of NRF2 and NQ01 protein (NRF2): not; abundance of NRF2 protein (cullin 3 substrate) (NRF2): no effect; protein levels of Cyclin E, BimEL and CDT1 (substrates of Cul-1 and Cul-4A) (Cyclin E, BimEL, CDT1): no effect; mRNA level of NRF2 [1]: no effect; mRNA levels of NQ01 and HO1 (NRF2-regulated genes) [1]: not
CC[C@H](C)[C@H](NC(=O)[C@H](Cc1nc2ccc(C(C)C)cc2s1)NC(=O)C1CC1)C(=O)N[C@@H](CCCCN)C(=O)N[C@@H](CC(C)C)C(N)=O [Example 274] (Cyclopropanecarbonyl-[Ala(6-iPr-benzothiazol-2-yl)]IKL-NH2) | 82.5 | –
CC[C@H](C)[C@H](NC(=O)[C@H](Cc1nc2ccc(C(C)C)cc2s1)NC(=O)C(C)C)C(=O)N[C@@H](CCCCN)C(=O)N[C@@H](CC(C)C)C(N)=O [Example 275] (Isobutyryl-[Ala(6-iPr-benzothiazol-2-yl)]IKL-NH2) | 77.8 | –
CCCC(=O)N[C@@H](Cc1nc2ccc(C(C)C)cc2s1)C(=O)N[C@H](C(=O)N[C@@H](CCCCN)C(=O)N[C@@H](CC(C)C)C(N)=O)[C@@H](C)CC [Example 276] (Butyryl-[Ala(6-iPr-benzothiazol-2-yl)]IKL-NH2) | 109 | –
CC[C@H](C)[C@H](NC(=O)[C@H](Cc1nc2ccc(C(C)C)cc2s1)NC(=O)CC(C)C)C(=O)N[C@@H](CCCCN)C(=O)N[C@@H](CC(C)C)C(N)=O [Example 277] (Isovaleryl-[Ala(6-iPr-benzothiazol-2-yl)]IKL-NH2) | 517 | –
CC[C@H](C)[C@H](NC(=O)[C@H](Cc1nc2ccc(C(C)C)cc2s1)NC(=O)NC)C(=O)N[C@@H](CCCCN)C(=O)N[C@@H](CC(C)C)C(N)=O [Example 278] ({NHMe-CO}-[Ala(6-iPr-benzothiazol-2-yl)]IKL-NH2) | 68.2 | –
CC[C@H](C)[C@H](NC(=O)[C@H](Cc1nc2ccc(C(C)C)cc2s1)NC(=O)OC)C(=O)N[C@@H](CCCCN)C(=O)N[C@@H](CC(C)C)C(N)=O [Example 279] (Moc-[Ala(6-iPr-benzothiazol-2-yl)]IKL-NH2) | 217 | –
CCC(=O)N[C@@H](Cc1nc2ccc(C(C)C)cc2s1)C(=O)N[C@@H](C)C(=O)N[C@@H](CCCCN)C(=O)N[C@@H](CC(C)C)C(N)=O [Example 280] (Propionyl-[Ala(6-iPr-benzothiazol-2-yl)]AKL-NH2) | 69.4 | –
CCC(=O)N[C@@H](Cc1nc2ccc(C(C)C)cc2s1)C(=O)N[C@@H](CC)C(=O)N[C@@H](CCCCN)C(=O)N[C@@H](CC(C)C)C(N)=O [Example 281] (Propionyl-[Ala(6-iPr-benzothiazol-2-yl)][Abu]KL-NH2) | 37.4 | –
CCC(=O)N[C@@H](Cc1nc2ccc(C(C)C)cc2s1)C(=O)N[C@H](C(=O)N[C@@H](CCCCN)C(=O)N[C@@H](CC(C)C)C(N)=O)C(C)C [Example 282] (Propionyl-[Ala(6-iPr-benzothiazol-2-yl)]VKL-NH2) | 72 | –
CCC(=O)N[C@@H](Cc1nc2ccc(C(C)C)cc2s1)C(=O)N[C@@H](CC(C)(C)C)C(=O)N[C@@H](CCCCN)C(=O)N[C@@H](CC(C)C)C(N)=O [Example 283] (Propionyl-[Ala(6-iPr-benzothiazol-2-yl)][tBuAla]KL-NH2) | 83 | –
CCC(=O)N[C@@H](Cc1nc2ccc(C(C)C)cc2s1)C(=O)N[C@@H](CC(F)(F)F)C(=O)N[C@@H](CCCCN)C(=O)N[C@@H](CC(C)C)C(N)=O [Example 284] (Propionyl-[Ala(6-iPr-benzothiazol-2-yl)][Abu(4,4,4-F3)]KL-NH2) | 154 | –
CCC(=O)N[C@@H](Cc1nc2ccc(C(C)C)cc2s1)C(=O)N[C@H](C(=O)N[C@@H](CCCCN)C(=O)N[C@@H](CC(C)C)C(N)=O)C1CCCC1 [Example 285] (Propionyl-[Ala(6-iPr-benzothiazol-2-yl)][Gly(cPent)]KL-NH2) | < 100 | –
CCC(=O)N[C@@H](Cc1nc2ccc(C(C)C)cc2s1)C(=O)N[C@H](C(=O)N[C@@H](CCCCN)C(=O)N[C@@H](CC(C)C)C(N)=O)C1CCCCC1 [Example 286] (Propionyl-[Ala(6-iPr-benzothiazol-2-yl)][Chg]KL-NH2) | 58.3 | –
CCC(=O)N[C@@H](Cc1nc2ccc(C(C)C)cc2s1)C(=O)N[C@H](C(=O)N[C@@H](CCCCN)C(=O)N[C@@H](CC(C)C)C(N)=O)C1CCNCC1 [Example 288] (Propionyl-[Ala(6-iPr-benzothiazol-2-yl)][Gly(piperidin-4-yl)]KL-NH2) | – | IC50 (DCN1; bounds given in μM, read-out: Binding affinity to DCN1 (IC50)): > 10000 nM
CCC(=O)N[C@@H](Cc1nc2ccc(C(C)C)cc2s1)C(=O)N[C@@H](CC1CCCCC1)C(=O)N[C@@H](CCCCN)C(=O)N[C@@H](CC(C)C)C(N)=O [Example 289] (Propionyl-[Ala(6-iPr-benzothiazol-2-yl)][Cha]KL-NH2) | 138 | –
CCC(=O)N[C@@H](Cc1nc2ccc(C(C)C)cc2s1)C(=O)N[C@@H](Cc1ccccc1)C(=O)N[C@@H](CCCCN)C(=O)N[C@@H](CC(C)C)C(N)=O [Example 290] (Propionyl-[Ala(6-iPr-benzothiazol-2-yl)]FKL-NH2) | 55.6 | –
CCC(=O)N[C@@H](Cc1nc2ccc(C(C)C)cc2s1)C(=O)N[C@H](C(=O)N[C@@H](CCCCN)C(N)=O)C1CCCCC1 [Example 291] | 116 | –
CCC(=O)N[C@@H](Cc1nc2ccc(C(C)C)cc2s1)C(=O)N[C@H](C(=O)N[C@@H](CCCCN)C(=O)N[C@@H](CC(C)C)C(N)=O)C1CCOCC1 [Example 2287] (Propionyl-[Ala(6-iPr-benzothiazol-2-yl)][Gly(4-THP)]KL-NH2) | 280 | –
NS(=O)(=O)OC[C@@H]1C[C@@H](n2ccc3c(N[C@H]4CCc5ccccc54)ncnc32)C[C@@H]1O [MLN4924, reference compound] | – | neddylation of cullin 3 (neddylation of cullin 3): inhibits; neddylation of cullin 1 (neddylation of cullin 1): inhibits; abundance of NRF2 protein (cullin 3 substrate) (NRF2): induces accumulation; protein levels of Cyclin E, BimEL and CDT1 (substrates of Cul-1 and Cul-4A) (Cyclin E, BimEL, CDT1): induces accumulation
